The numbers were not newly measured in PMC5266543 (ACS infectious diseases, 2016), which cites them from elsewhere.

Each structure is given as a SMILES string.

This data set concerns M. tuberculosis H37Rv. To be noted: cited from earlier work.

For `CC(=O)N(O)CCCP(=O)(O)O` [Compound 2, FR900098], the “MIC against Mtb” value was “essentially inactive”.
